{"source": "patent US20030198696A1", "about": "“Pesticide composition of plant oils and fish oils” (priority 2000, published 2003)", "test_system": "citrus greasy spot", "experiment": "Test for citrus greasy spot control", "format": "in vivo", "details": "treatment amounts as printed in 250 gallons of water per acre, untreated control 0.510", "excerpt": "Test for citrus greasy spot control. Treatments consisted of the following amounts of compounds in 250 gallons of water per acre: […]", "data": [{"substance": "Copper", "values": [{"measurement": "Disease Incidence", "result": 0.050}]}]}
